Assay results taken from US20260294770A1, “FORMULATIONS OF NARINGENIN” (DEBUT BIOTECHNOLOGY, INC., priority 2023, published 2026).

What was measured:
[1] = cited from earlier work
[2] = test system: BMP6; experiment: Downregulation of gene expression and/or activity, 1% naringenin: BMP6
Excerpt: (§1) In certain embodiments, administration of a composition comprising naringenin leads to up-regulation of LCE5A, KRT77, ALOXE3, KRT1, HPGD, MUCL1, CASP14, WFDC12, KRT10, DNASE1L2, IL37, SERPINB12, HAL, UPK1A, CALML5, LCE2B, and/or MIR205. In certain embodiments, administration of a composition comprising naringenin leads to down-regulation of CCL11, CSF2, IL23A, IL11, BMP6, IL13RA2, C2CD4A, NR4A2, C2CD4B, FGF2, FARP4, GDF15, THBS1, HSPA1A, PTGS2, and/or DKK1. Tables 10 and 11 provide data for upregulation and downregulation respectively of certain genes after administration of compositions comprising 1% naringenin.
Bone morphogenetic protein 6 (BMP6) plays a role in wound healing. The protein encoded by this gene is a member of the TGFβ superfamily. Bone morphogenetic proteins are known for their ability to induce the growth of bone and cartilage. BMP6 may induce all osteogenic markers in mesenchymal stem cells. In certain embodiments, the administration of compositions comprising naringenin leads to downregulation of expression and/or activity of BMP6. […] In certain embodiments, this may also lead to anti-aging effect for the skin. In certain embodiments, the administration of composition comprising naringenin results in at least about 2 to about 20-fold downregulation of expression and/or activity of BMP6. […]

[3] = test system: KRT77; experiment: Upregulation of gene expression and/or activity, 1% naringenin: KRT77
Excerpt: as §1
Kertain 77 (KRT77) is involved in production of keratin. In particular, KRT77 encodes an epithelial keratin that is expressed in the skin and eccrine sweat glands. KRT77 encodes keratin 77, a member of the type II keratin family of intermediate filament proteins. Keratin 77 is also known as KRT1B, Type II cytoskeletal 1b, Type IT keratin Kb39, and cytokeratin 1B. In certain embodiments, upregulation of expression and/or activity of KRT77, results in enhanced keratin production. The increased keratin production contributes to increase in the skin barrier strength. In certain embodiments, the administration of composition comprising naringenin results in at least about 5 to about 20-fold upregulation of expression and/or activity of KRT77. […]

[4] = biological target: T1, human neutrophil elastase (Homo sapiens, UniProt P08246); experiment: Elastase enzyme inhibition; type: biochemical
T1 sequence (P08246 30-267): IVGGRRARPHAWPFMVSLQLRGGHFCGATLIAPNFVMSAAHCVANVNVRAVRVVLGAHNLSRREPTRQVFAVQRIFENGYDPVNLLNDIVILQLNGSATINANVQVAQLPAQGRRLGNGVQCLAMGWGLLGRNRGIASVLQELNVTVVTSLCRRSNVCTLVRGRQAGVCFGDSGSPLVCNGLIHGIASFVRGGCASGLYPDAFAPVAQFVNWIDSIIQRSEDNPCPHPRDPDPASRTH
Method: The assay was conducted to evaluate the elastase enzyme inhibition activity of compositions comprising naringenin.
Neutrophil infiltration and neutrophil elastase are both increased in the skin in response to UV stress. […] Therefore, inhibition of this enzyme, particularly in combination with antioxidant activity, is effective in delaying wrinkle development and aiding in maintaining skin integrity. This assay is measures release of 4-nitroaniline from an Me-Suc-Ala-Ala-Pro-Val-pNA by human neutrophil elastase and can be quantified at 405 nm by comparing to solvent control.

[5] = test system: IL11; experiment: Downregulation of gene expression and/or activity, 1% naringenin: IL11
Excerpt: as §1
Interleukin 11 (IL11) plays a role in the inflammatory pathway and in certain pathways that may be involved in cancer. In certain embodiments of the invention, downregulation of IL11 leads to an anti-inflammatory activity and/or anticancer activity. In certain embodiments, the administration of composition comprising naringenin results in at least about 10 to about 20-fold downregulation of expression and/or activity of IL11. In certain embodiments, the administration of composition comprising naringenin results in at least about ten (10) fold downregulation of expression and/or activity of IL11.

[6] = test system: CASP14; experiment: Upregulation of gene expression and/or activity, 1% naringenin: CASP14
Excerpt: as §1
Cysteine-aspartic acid protease 14 (CASP14) plays a role in keratinocyte terminal differentiation, which is important for the formation of the skin barrier. In certain embodiments, administration of compositions comprising naringenin leads to upregulation of CASP14. In certain embodiments, this upregulation of CASP14 leads to the improved skin barrier formation. In certain embodiments, the administration of composition comprising naringenin results in at least about 5 to about 20-fold upregulation of expression and/or activity of CASP14. In certain embodiments, the administration of composition comprising naringenin results in at least about ten (10) fold upregulation of expression and/or activity of CASP14.

[7] = test system: glutathione; details: consumed orally; cited from earlier work
[8] = test system: KRT10; experiment: Upregulation of gene expression and/or activity, 1% naringenin: KRT10
Excerpt: as §1
Keratin 10 (KRT10) is also involved in keratin production. Keratin is involved in increasing the barrier strength and resilience of the skin. Keratin 10 is produced in keratinocytes in the outer layer of the skin (the epidermis). In the fluid-filled space inside these cells (the cytoplasm), the keratin 10 protein partners with a similar protein, keratin 1 (produced from the KRT1 gene), to form molecules called keratin intermediate filaments. These filaments assemble into strong networks that provide strength and resiliency to the skin and protect it from being damaged by friction and other everyday physical stresses. […]

[9] = test system: mouse models; details: intraperitoneal; cited from earlier work

Structure (SMILES): O=C1C[C@@H](c2ccc(O)cc2)Oc2cc(O)cc(O)c21 [naringenin, (2S)-5,7-Dihydroxy-2-(4-hydroxyphenyl)-2,3-dihydro-4H-1-benzopyran-4-one]
- Safety on oral ingestion [1]: generally considered safe for oral ingestion
- fold downregulation in expression and/or activity of BMP6 [2]: ~11 fold
- Fold-increase (downregulation table) BMP6 ([2]; negative = downregulation): −11 fold
- Fold-increase in expression and/or activity of KRT77 [3]: ~12 fold
- Lowest concentration inhibiting elastase [4]: ≤ 0.02 % w/w
- inhibition at 0.02 % strength ([4]; 0.02 % w/w naringenin): 1.05%
- inhibition at 0.1 % strength ([4]; 0.10 % w/w naringenin): 15.5%
- inhibition at 0.5 % strength ([4]; 0.50 % w/w naringenin): 84%
- IC50 elastase inhibition ([4]; role: inhibitor, substrate Me-Suc-Ala-Ala-Pro-Val-pNA, calculated): 0.159 % w/w
- fold downregulation in expression and/or activity of IL11 [5]: ~14 fold
- Fold-increase in expression and/or activity of CASP14 [6]: ~11 fold
- Glutathione [7]: increase
- Fold-increase in expression and/or activity of KRT10 [8]: ~6 fold
- Cytokine production [9]: lowers cytokine production
- Edema [9]: effectively inhibits edema
- Symptoms associated with atopic dermatitis [9]: lowers symptoms associated with atopic dermatitis
- UVB-induced skin damage [9]: inhibits UVB-induced skin damage
